The source of these data is US9765075B2, “Substituted bridged urea analogs as sirtuin modulators” (GLAXOSMITHKLINE LLC, priority 2013, dated 2017).

Structures are written as SMILES.

In this experiment the target is T1, SIRT1 (Homo sapiens, UniProt Q96EB6).
T1 sequence (Q96EB6 1-747): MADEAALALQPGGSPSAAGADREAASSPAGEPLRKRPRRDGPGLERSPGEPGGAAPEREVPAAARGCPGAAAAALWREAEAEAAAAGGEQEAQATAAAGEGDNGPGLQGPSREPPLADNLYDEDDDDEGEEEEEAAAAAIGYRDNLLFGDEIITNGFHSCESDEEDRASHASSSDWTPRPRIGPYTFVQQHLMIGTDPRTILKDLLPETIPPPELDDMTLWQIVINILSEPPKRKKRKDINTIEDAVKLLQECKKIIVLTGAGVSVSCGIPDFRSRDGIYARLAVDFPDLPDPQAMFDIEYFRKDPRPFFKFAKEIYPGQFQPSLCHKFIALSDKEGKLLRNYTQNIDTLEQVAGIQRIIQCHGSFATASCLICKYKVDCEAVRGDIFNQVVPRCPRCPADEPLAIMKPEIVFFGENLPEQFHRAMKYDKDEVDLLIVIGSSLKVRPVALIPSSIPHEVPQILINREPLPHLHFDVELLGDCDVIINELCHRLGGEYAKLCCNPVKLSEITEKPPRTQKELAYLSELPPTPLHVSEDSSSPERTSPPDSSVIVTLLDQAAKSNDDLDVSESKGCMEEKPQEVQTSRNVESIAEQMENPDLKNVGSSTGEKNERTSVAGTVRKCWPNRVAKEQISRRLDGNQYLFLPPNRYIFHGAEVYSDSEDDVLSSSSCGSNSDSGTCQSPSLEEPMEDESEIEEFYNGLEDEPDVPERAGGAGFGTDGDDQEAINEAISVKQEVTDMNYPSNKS
Kind of experiment: Trp mass spectrometry assay (SIRT1 activation). The format is biochemical. The settings on record: Trp mass spectrometry assay; for Tryp AVG EC1.5 (μM): EC1.5 = concentration of test compound that results in 150% activation of SIRT1; for Emax: percent maximum fold activation of SIRT1, read-out: Tryp % Fold Act. The source says:
Mass spectrometry based assays were used to identify modulators of SIRT1 activity. […] The peptide was labeled with the fluorophore 5TMR (excitation 540 nm/emission 580 nm) at the C-terminus. The sequence of the peptide substrate was based on p53 with several modifications. In addition, the methionine residue naturally present in the sequence was replaced with the norleucine because the methionine may be susceptible to oxidation during synthesis and purification. The Trp based assay utilized a peptide having an amino acid residues as follows: Ac-R-H-K-K(Ac)-W-NH2 (SEQ ID NO: 2).
The Trp mass spectrometry assay was conducted as follows. 0.5 μM peptide substrate and 120 μM βNAD^+ were incubated with 10 nM SIRT1 for 25 minutes at 25° C. in a reaction buffer (50 mM HEPES pH 7.5, […] NaCl, 1 mM DTT, 0.05% BSA). The SIRT1 protein was obtained by cloning the SirT1 gene into a T7-promoter containing vector, which was then expressed in BL21(DE3) bacterial cells and purified as described in further detail below. Test compound was added at varying concentrations to this reaction mixture and the resulting reactions were monitored. After the 25 minute incubation with SIRT1, 10 μL of 10% formic acid was added to stop the reaction. The resulting reactions were sealed and frozen for later mass spec analysis. The relative SIRT1 activity was then determined by measuring the amount of 0-acetyl-ADP-ribose (OAADPR) formed (or, alternatively, the amount of deacetylated Trp peptide generated) by the NAD-dependent sirtuin deacetylation reaction in the presence of varying concentrations of the test compound versus control reactions lacking the test compound. The degree to which the test agent activated deacetylation by SIRT1 was expressed as EC1.5 (i.e., the concentration of compound required to increase SIRT1 activity by 50% over the control lacking test compound), and Percent Maximum Activation (i.e., the maximum activity relative to control (100%) obtained for the test compound).
A control for activation of sirtuin activity was conducted using 10 nM of sirtuin protein, with 1 μL of DMSO in place of compound, to determine the amount of deacetylation of the substrate at a given time point within the linear range of the assay. This time point was the same as that used for test compounds and, within the linear range, the endpoint represents a change in velocity.
For the above assay, SIRT1 protein was expressed and purified as follows. The SirT1 gene was cloned into a T7-promoter containing vector and transformed into BL21(DE3). The protein was expressed by induction with 1 mM IPTG as an N-terminal His-tag fusion protein at 18° C. overnight and harvested at 30,000×g. Cells were lysed with lysozyme in lysis buffer (50 mM Tris-HCl, 2 mM Tris[2-carboxyethyl] phosphine (TCEP), 10 μM ZnCl2, 200 mM NaCl) and further treated with sonication for 10 min for complete lysis. The protein was purified over a Ni-NTA column (Amersham) and fractions containing pure protein were pooled, concentrated and run over a sizing column (Sephadex S200 26/60 global). The peak containing soluble protein was collected and run on an Ion-exchange column (MonoQ). Gradient elution (200 mM-500 mM NaCl) yielded pure protein. This protein was concentrated and dialyzed against dialysis buffer (20 mM Iris-HCl, 2 mM TCEP) overnight. The protein was aliquoted and frozen at −80° C. until further use.

With `Cc1nc(NC(=O)N2c3nc(-c4cccc(C(F)(F)F)c4)ccc3N3CC[C@H]2C3)nc2c1CCC2` [Example 91], the “Tryp AVG EC1.5 (μM)” value was “B (EC1.5 1-25 μM)” and the Emax is ≥ 150%. Regarding `Cc1nn(C)cc1NC(=O)N1c2nc(-c3cccc(C(F)(F)F)c3)ccc2N2CC[C@H]1C2` [Example 92], the “Tryp AVG EC1.5 (μM)” value was “B (EC1.5 1-25 μM)” and the Emax is ≥ 150%.

`O=C1OCc2ccc(NC(=O)N3c4nc(-c5cccc(C(F)(F)F)c5)ccc4N4CC[C@H]3C4)cc21` [Example 93]: the “Tryp AVG EC1.5 (μM)” value is “A (EC1.5<1 μM)” and the Emax was ≥ 150%. For the compound `Cc1cc(C(F)(F)F)nc(NC(=O)N2c3nc(-c4cccc(C(F)(F)F)c4)ccc3N3CC[C@H]2C3)n1` [Example 94], the “Tryp AVG EC1.5 (μM)” value is given as “B (EC1.5 1-25 μM)” and the Emax is ≥ 150%.

As to `O=C(Nc1ccc2c(c1)OCCCO2)N1c2nc(-c3cccc(C(F)(F)F)c3)ccc2N2CC[C@H]1C2` [Example 95], the “Tryp AVG EC1.5 (μM)” value is on record as “A (EC1.5<1 μM)” and the Emax is ≥ 150%. The like results for `O=C(Nc1ccncc1Cl)N1c2nc(-c3cccc(C(F)(F)F)c3)ccc2N2CC[C@H]1C2` [Example 96] were, in that order, “B (EC1.5 1-25 μM)” and ≥ 150%.

In the case of `O=C(Nc1ccncn1)N1c2nc(C3CCCC(C(F)(F)F)C3)ccc2N2CC[C@H]1C2` (stereo partly shown) [Example 98], the “Tryp AVG EC1.5 (μM)” value is “B (EC1.5 1-25 μM)” and the Emax is ≥ 150%. On the same counts, the results for `O=C(Nc1cccnc1)N1c2nc(C3CCCC(C(F)(F)F)C3)ccc2N2CC[C@H]1C2` (stereo partly shown) [Example 99] are “A (EC1.5<1 μM)” and ≥ 150%. On the same counts, the results for `Cc1cnccc1NC(=O)N1c2nc(C3CCCC(C(F)(F)F)C3)ccc2N2CC[C@H]1C2` (stereo partly shown) [Example 100] are “B (EC1.5 1-25 μM)” and ≥ 150%. The like results for `O=C(Nc1cnccn1)N1c2nc(-c3cccc(Cl)c3)ccc2N2CC[C@H]1C2` [Example 101] were, in that order, “A (EC1.5<1 μM)” and ≥ 150%. Consider `Cc1nc(NC(=O)N2c3nc(-c4cccc(Cl)c4)ccc3N3CC[C@H]2C3)sc1C` [Example 102], for which the “Tryp AVG EC1.5 (μM)” value is recorded as “A (EC1.5<1 μM)” and the Emax is ≥ 150%. The like results for `COc1cc(NC(=O)N2c3nc(-c4cccc(Cl)c4)ccc3N3CC[C@H]2C3)nc(OC)n1` [Example 103] were, in that order, “B (EC1.5 1-25 μM)” and ≥ 150%. On the same counts, the results for `COc1cc(NC(=O)N2c3nc(-c4cccc(Cl)c4)ccc3N3CC[C@H]2C3)ncn1` [Example 104] are “B (EC1.5 1-25 μM)” and ≥ 150%. The like results for `Cc1cc(C)nc(NC(=O)N2c3nc(-c4cccc(Cl)c4)ccc3N3CC[C@H]2C3)c1` [Example 105] were, in that order, “B (EC1.5 1-25 μM)” and ≥ 150%. As for `Cc1cccnc1NC(=O)N1c2nc(-c3cccc(Cl)c3)ccc2N2CC[C@H]1C2` [Example 106], the “Tryp AVG EC1.5 (μM)” value is on record as “C (EC1.5>25 μM)” and the Emax was ≥ 150%. For `O=C(Nc1cccnc1)N1c2nc(-c3cccc(Cl)c3)ccc2N2CC[C@H]1C2` [Example 107], the Emax was ≥ 150%. On to `Cn1cc(NC(=O)N2c3nc(-c4cccc(Cl)c4)ccc3N3CC[C@H]2C3)cn1` [Example 108], for which the “Tryp AVG EC1.5 (μM)” value is “B (EC1.5 1-25 μM)” and the Emax was ≥ 150%.

`Cn1ccc(NC(=O)N2c3nc(-c4cccc(Cl)c4)ccc3N3CC[C@H]2C3)n1` [Example 109]: the “Tryp AVG EC1.5 (μM)” value was “B (EC1.5 1-25 μM)” and the Emax was ≥ 150%.

On to `O=C(Nc1ccncn1)N1c2nc(-c3cccc(Cl)c3)ccc2N2CC[C@H]1C2` [Example 110], for which the “Tryp AVG EC1.5 (μM)” value is on record as “A (EC1.5<1 μM)” and the Emax is ≥ 150%. As to `CC1CN2CC1N(C(=O)Nc1ccncc1)c1nc(-c3cccc(C(F)(F)F)c3)ccc12` (stereo not shown) [Example 114], the “Tryp AVG EC1.5 (μM)” value is on record as “B (EC1.5 1-25 μM)” and the Emax was ≥ 150%.

Turning to `Cn1cc2cc(NC(=O)N3c4nc(-c5cccc(Cl)c5)ccc4N4CC[C@H]3C4)ccc2n1` [Example 118], the “Tryp AVG EC1.5 (μM)” value is on record as “A (EC1.5<1 μM)” and the Emax is ≥ 150%.

Turning to `O=C(Nc1cncc(F)c1)N1c2nc(-c3cccc(Cl)c3)ccc2N2CC[C@H]1C2` [Example 119], the “Tryp AVG EC1.5 (μM)” value was “A (EC1.5<1 μM)” and the Emax is ≥ 150%.

Take `O=C(Nc1ccnnc1)N1c2nc(-c3cccc(Cl)c3)ccc2N2CC[C@H]1C2` [Example 120]: the “Tryp AVG EC1.5 (μM)” value was “A (EC1.5<1 μM)” and the Emax was ≥ 150%. The like results for `COc1cncc(NC(=O)N2c3nc(-c4cccc(Cl)c4)ccc3N3CC[C@H]2C3)n1` [Example 121] were, in that order, “A (EC1.5<1 μM)” and ≥ 150%. The like results for `O=C(Nc1ccncc1)N1c2nc(-c3cccc(Cl)c3)ccc2N2CC[C@H]1C2` [Example 122] were, in that order, “A (EC1.5<1 μM)” and ≥ 150%. With `O=C(Nc1ccc(F)cn1)N1c2nc(-c3ccccc3C(F)(F)F)ccc2N2CC[C@H]1C2` [Example 123], the “Tryp AVG EC1.5 (μM)” value is “C (EC1.5>25 μM)” and the Emax is < 150%.

As for `COc1cnc(NC(=O)N2c3nc(-c4cccc(Cl)c4)ccc3N3CC[C@H]2C3)cn1` [Example 124], the “Tryp AVG EC1.5 (μM)” value is “B (EC1.5 1-25 μM)” and the Emax is ≥ 150%. For `O=C(Nc1ccc(F)cn1)N1c2nc(-c3ccnc(C(F)(F)F)c3)ccc2N2CC[C@H]1C2` [Example 128], the “Tryp AVG EC1.5 (μM)” value is reported as “A (EC1.5<1 μM)” and the Emax is ≥ 150%.

Consider `O=C(Nc1ccc(F)cn1)N1c2nc(-c3cccc(OC(F)(F)F)c3)ccc2N2CC[C@H]1C2` [Example 129], for which the “Tryp AVG EC1.5 (μM)” value is on record as “A (EC1.5<1 μM)” and the Emax was ≥ 150%. The like results for `N#Cc1cccc(-c2ccc3c(n2)N(C(=O)Nc2ccc(F)cn2)[C@H]2CCN3C2)c1` [Example 130] were, in that order, “A (EC1.5<1 μM)” and ≥ 150%.

For `O=C(Nc1ccc(F)cn1)N1c2nc(-c3cccc(N4CCCC4)c3)ccc2N2CC[C@H]1C2` [Example 131], the “Tryp AVG EC1.5 (μM)” value is reported as “B (EC1.5 1-25 μM)” and the Emax was ≥ 150%. On the same counts, the results for `COc1cc(NC(=O)N2c3nc(-c4cccc(N5CCCC5)c4)ccc3N3CC[C@H]2C3)ncn1` [Example 132] are “B (EC1.5 1-25 μM)” and ≥ 150%. Turning to `COc1cc(NC(=O)N2c3nc(-c4ccnc(C(F)(F)F)c4)ccc3N3CC[C@H]2C3)ncn1` [Example 133], the “Tryp AVG EC1.5 (μM)” value is “A (EC1.5<1 μM)” and the Emax was ≥ 150%. On the same counts, the results for `COc1cc(NC(=O)N2c3nc(-c4ccccc4C(F)(F)F)ccc3N3CC[C@H]2C3)ncn1` [Example 134] are “C (EC1.5>25 μM)” and < 150%.
